Test results taken from patent publication US12338220B2, “Antiviral pyrazolopiridinone compounds” (Novartis AG, priority 2019, dated 2025).
Where two headings read alike, the source gives them in different places.

Columns and labels:
CMV-polymerase = CMV-polymerase (Human cytomegalovirus (strain AD169) (HHV-5) (Human herpesvirus 5), UniProt P08546); assay: biochemical
HSV-polymerase = HSV-polymerase (Human herpesvirus 1 (strain 17) (HHV-1) (Human herpes simplex virus 1), UniProt P04293); assay: biochemical
CMV = assay: microbe, parasite or virus in culture; type: cell-based; details: Human betaherpesvirus 5, 72 h, read-out: CMV-Luc Cellular EC50, NN-NHDF cells, MOI 1, 72 hrs
[1] = CMV-polymerase Biochemical IC50
[2] = read-out: CMV-polymerase Biochemical IC50

SMILES	IC50 (CMV-polymerase; [1]) [nM]	IC50 (HSV-polymerase) [nM]	IC50 (CMV-polymerase; [2]) [nM]	EC50 (CMV) [nM]
Cn1nc(C(=O)NCc2ccc(C#N)cc2)c2c1C(=O)N(CC1(S(=O)(=O)C(C)(C)C(O)C(C)(C)N)CC1)CC2 (single isomer, unassigned) [Example 211, (R)- or (S)-6-((1-((4-Amino-3-hydroxy-2,4-dimethylpentan-2-yl)sulfonyl)cyclopropyl)methyl)-N-(4-cyanobenzyl)-1-methyl-7-oxo-4,5,6,7-tetrahydro-1H-pyrazolo[3,4-c]pyridine-3-carboxamide]	9	77	–	–
CC(O)CC(C)(C)S(=O)(=O)C1(CN2CCc3c(C(=O)NCc4ccc(C#N)cc4)nn(C)c3C2=O)CC1 (single isomer, unassigned) [Example 116, (R)- or (S)-N-(4-Cyanobenzyl)-6-((1-((4-hydroxy-2-methylpentan-2-yl)sulfonyl)cyclopropyl)methyl)-1-methyl-7-oxo-4,5,6,7-tetrahydro-1H-pyrazolo[3,4-c]pyridine-3-carboxamide]	2	48	–	–
CC(O)Cn1nc(C(=O)NCc2ccc(C#N)cc2)c2c1C(=O)N(CC1(S(=O)(=O)C3CC3)CC1)CC2 (single isomer, unassigned) [Example 226, (R)- or (S)-N-(4-cyanobenzyl)-6-((1-(cyclopropylsulfonyl)cyclopropyl)methyl)-1-(2-hydroxypropyl)-7-oxo-4,5,6,7-tetrahydro-1H-pyrazolo[3,4-c]pyridine-3-carboxamide]	2	101	–	–
Cn1nc(C(=O)NCc2ccc(C#N)cc2)c2c1C(=O)N(CC1(S(=O)(=O)C3(C(O)CO)CC3)CC1)CC2 (single isomer, unassigned) [Example 195, (R)- or (S)-N-(4-Cyanobenzyl)-6-((1-((1-(1,2-dihydroxyethyl)cyclopropyl)sulfonyl)cyclopropyl)methyl)-1-methyl-7-oxo-4,5,6,7-tetrahydro-1H-pyrazolo[3,4-c]pyridine-3-carboxamide]	–	23	–	–
COCC(C)(CO)S(=O)(=O)C1(CN2CCc3c(C(=O)NCc4ccc(C#N)cc4)nn(C)c3C2=O)CC1 (single isomer, unassigned) [Example 182, (R)- or (S)-N-(4-Cyanobenzyl)-6-((1-((1-hydroxy-3-methoxy-2-methylpropan-2-yl)sulfonyl)cyclopropyl)methyl)-1-methyl-7-oxo-4,5,6,7-tetrahydro-1H-pyrazolo[3,4-c]pyridine-3-carboxamide]	2	46	–	–
Cn1nc(C(=O)NCc2ccc(C#N)cc2)c2c1C(=O)N(CC1(S(=O)(=O)C(C)(C)COC(F)CN)CC1)CC2 (single isomer, unassigned) [Example 83, (R)- or (S)-6-((1-((1-(2-Amino-1-fluoroethoxy)-2-methylpropan-2-yl)sulfonyl)cyclopropyl)methyl)-N-(4-cyanobenzyl)-1-methyl-7-oxo-4,5,6,7-tetrahydro-1H-pyrazolo[3,4-c]pyridine-3-carboxamide]	–	71	1	–
CC1=NOC(C(C)(C)S(=O)(=O)C2(CN3CCc4c(C(=O)NCc5ccc(C#N)cc5)nn(C)c4C3=O)CC2)C1 (single isomer, unassigned) [Example 112, (R)- or (S)-N-(4-Cyanobenzyl)-1-methyl-6-((1-((2-(3-methyl-4,5-dihydroisoxazol-5-yl)propan-2-yl)sulfonyl)cyclopropyl)methyl)-7-oxo-4,5,6,7-tetrahydro-1H-pyrazolo[3,4-c]pyridine-3-carboxamide]	–	89	2	–
Cn1nc(C(=O)NCc2ccc(C#N)cc2)c2c1C(=O)N(CC1(S(=O)(=O)C(C)(C)COC(F)CN)CC1)CC2 (single isomer, unassigned) [Example 82, (R)- or (S)-6-((1-((1-(2-amino-1-fluoroethoxy)-2-methylpropan-2-yl)sulfonyl)cyclopropyl)methyl)-N-(4-cyanobenzyl)-1-methyl-7-oxo-4,5,6,7-tetrahydro-1H-pyrazolo[3,4-c]pyridine-3-carboxamide]	–	82	2	–
CC1=NOC(C(C)(C)S(=O)(=O)C2(CN3CCc4c(C(=O)NCc5ccc(C#N)cc5)nn(C)c4C3=O)CC2)C1 (single isomer, unassigned) [Example 111, (R)- or (S)-N-(4-Cyanobenzyl)-1-methyl-6-((1-((2-(3-methyl-4,5-dihydroisoxazol-5-yl)propan-2-yl)sulfonyl)cyclopropyl)methyl)-7-oxo-4,5,6,7-tetrahydro-1H-pyrazolo[3,4-c]pyridine-3-carboxamide]	–	148	5	–
CCS(=O)(=O)C1(CN2CCc3c(C(=O)NCc4ccc(C#N)cc4)nn(C)c3C2=O)CC1 [Example 20, N-(4-Cyanobenzyl)-6-((1-(ethylsulfonyl)cyclopropyl)methyl)-1-methyl-7-ox0-4,5,6,7-tetrahydro-1 H-pyrazolo[3,4-c]pyridine-3-carboxamide]	–	–	6	106
Cn1nc(C(=O)NCc2ccc(C#N)cc2)c2c1C(=O)N(CC1(S(=O)(=O)C(C)(C)CO)CC1)CC2 [Example 52, N-(4-Cyanobenzyl)-6-((1-((1-hydroxy-2-methylpropan-2-yl)sulfonyl)cyclopropyl)methyl)-1-methyl-7-oxo-4,5,6,7-tetrahydro-1H-pyrazolo[3,4-c]pyridine-3-carboxamide]	–	–	1	19
Cc1cc(NS(=O)(=O)C2(CN3CCc4c(C(=O)NCc5ccc(Cl)cc5)nn(C)c4C3=O)CC2)no1 [Example 166, N-(4-Chlorobenzyl)-1-methyl-6-((1-(N-(5-methylisoxazol-3-yl)sulfamoyl)cyclopropyl)methyl)-7-oxo-4,5,6,7-tetrahydro-1H-pyrazolo[3,4-c]pyridine-3-carboxamide]	–	–	1	88
CC(C)(O)Cn1nc(C(=O)NCc2ccc(Cl)cc2)c2c1C(=O)N(CC1(S(=O)(=O)C3CC3)CC1)CC2 [Example 229, N-(4-Chlorobenzyl)-6-((1-(cyclopropylsulfonyl)cyclopropyl)methyl)-1-(2-hydroxy-2-methylpropyl)-7-oxo-4,5,6,7-tetrahydro-1H-pyrazolo[3,4-c]pyridine-3-carboxamide]	1	–	–	20
CC1(C)CNCCOCCn2nc(C(=O)NCc3ccc(C#N)cc3)c3c2C(=O)N(CC3)CC2(CC2)S1(=O)=O [Example 242, amine macrocycle N-(4-cyanobenzyl)carboxamide]	6	–	–	101
Cn1nc(C(=O)NCc2ccc(C#N)cc2)c2c1C(=O)N(CC1(S(=O)(=O)C3(CO)COC3)CC1)CC2 [Example 173, N-(4-Cyanobenzyl)-6-((1-((3-(hydroxymethyl)oxetan-3-yl)sulfonyl)cyclopropyl)methyl)-1-methyl-7-oxo-4,5,6,7-tetrahydro-1H-pyrazolo[3,4-c]pyridine-3-carboxamide]	–	–	3	74
C[C@@H](NC(=O)c1nn(C)c2c1CCN(CC1(S(=O)(=O)C(C)(C)CO)CC1)C2=O)c1ccc(C#N)cc1 [Example 55, (R)-N-(1-(4-Cyanophenyl)ethyl)-6-((1-((1-hydroxy-2-methylpropan-2-yl)sulfonyl)cyclopropyl)methyl)-1-methyl-7-oxo-4,5,6,7-tetrahydro-1H-pyrazolo[3,4-c]pyridine-3-carboxamide]	–	–	601	> 10000
